Test results reported in patent US20060030611A1, “Enoximone sulfoxide enantiomers and their use in the treatment of PDE-III mediated diseases” (Myogen, Inc., priority 2004, published 2006).
Where two headings read alike, the source gives them in different places.

Columns and labels:
[1] = cited from earlier work; for average steady-state plasma concentration: oral
[2] = system: trabeculae from the right ventricular free wall of explanted human hearts; experiment: Peak contractile force of isolated human right ventricular trabeculae in muscle bath; assay type: cell-based; conditions: 37° C., 1.0 Hz field stimulation, increasing concentrations
Protocol: Explanted human hearts were obtained from transplant recipients (n=7) and from nonfailing donor hearts (n=1). After excision, hearts were placed immediately into ice cold Tyrode's solution and aerated with 95% O2 and 5% CO2. Trabeculae between 1-3 mm in width and 7-10 mm in length were excised from the right ventricular free wall. Subsequently trabeculae were mounted in a multi-chamber muscle bath in oxygenated Tyrode's solution at 37° C. The trabeculae were placed under 1 gram of resting tension and a field stimulation of 1.0 Hz. […] Peak contractile forces were recorded at 10 minute intervals for a total of 1½ hours. Following experimentation, trabeculae were frozen in liquid N2.

[3] = system: men who suffer from ED; conditions: ED of psychogenic or organic etiology, clinical studies; cited from earlier work
[4] = system: PDE-III; conditions: cited from earlier work
[5] = molecular target: T1, PDE-III isolated from human platelets (Homo sapiens, UniProt Q14432); experiment: PDE-III inhibition, [3H]cAMP substrate; assay type: biochemical; conditions: triplicate at three concentrations over log scale, semi-quantitative
T1 construct: PDE-III isolated from human platelets; from tissue; host or cells: human platelets
T1 sequence (Q14432 whole entry): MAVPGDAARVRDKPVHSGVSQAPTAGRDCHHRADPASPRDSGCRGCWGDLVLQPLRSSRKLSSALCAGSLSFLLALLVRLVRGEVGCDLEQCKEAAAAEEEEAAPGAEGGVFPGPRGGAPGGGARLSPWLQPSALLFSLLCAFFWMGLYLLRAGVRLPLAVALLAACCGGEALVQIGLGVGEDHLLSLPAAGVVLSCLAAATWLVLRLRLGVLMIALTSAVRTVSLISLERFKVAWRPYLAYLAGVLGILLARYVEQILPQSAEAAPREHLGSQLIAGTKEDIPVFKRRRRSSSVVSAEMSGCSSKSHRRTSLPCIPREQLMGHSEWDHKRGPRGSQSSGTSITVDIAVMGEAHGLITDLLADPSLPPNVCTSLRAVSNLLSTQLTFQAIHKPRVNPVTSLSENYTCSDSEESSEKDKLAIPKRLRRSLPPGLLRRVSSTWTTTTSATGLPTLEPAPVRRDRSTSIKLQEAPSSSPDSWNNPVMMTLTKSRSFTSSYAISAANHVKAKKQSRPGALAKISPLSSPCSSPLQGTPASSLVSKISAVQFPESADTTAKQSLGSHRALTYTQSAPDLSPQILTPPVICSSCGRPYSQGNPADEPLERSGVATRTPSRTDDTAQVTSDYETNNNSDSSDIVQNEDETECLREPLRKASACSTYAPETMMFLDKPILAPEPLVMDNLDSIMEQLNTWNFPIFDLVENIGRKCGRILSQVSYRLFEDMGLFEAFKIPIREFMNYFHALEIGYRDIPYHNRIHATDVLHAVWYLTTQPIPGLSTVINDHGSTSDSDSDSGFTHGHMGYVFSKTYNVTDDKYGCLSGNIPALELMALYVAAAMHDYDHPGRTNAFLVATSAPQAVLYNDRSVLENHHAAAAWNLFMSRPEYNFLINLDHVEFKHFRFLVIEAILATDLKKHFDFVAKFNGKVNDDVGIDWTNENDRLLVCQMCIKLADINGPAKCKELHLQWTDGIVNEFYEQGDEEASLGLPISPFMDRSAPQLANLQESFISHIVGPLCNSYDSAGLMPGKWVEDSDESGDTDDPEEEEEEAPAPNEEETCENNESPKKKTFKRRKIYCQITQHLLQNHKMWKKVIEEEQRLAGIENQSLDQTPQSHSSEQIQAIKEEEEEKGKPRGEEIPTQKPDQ
Protocol: Enoximone Sulfoxide enantiomer was tested for its ability to inhibit the action of PDE-III isolated from human platelets. The substrate was [^3H]cAMP+cAMP, which is converted by PDE-III to […] and then […] can be quantified. Assays were done in triplicate at three different concentrations over log scale, allowing semi-quantitative measurement of IC50.

## CSc1ccc(C(=O)c2[nH]c(=O)[nH]c2C)cc1 [Enoximone, 1,3-Dihydro-4-methyl-5-[4-(methylthio)benzoyl]-2H-imidazol-2-one]
[1]; 50 mg every 8 hours
  average steady-state plasma concentration: 115 ± 40 ng/mL
[1]; 100 mg every 8 hours
  average steady-state plasma concentration: 190 ± 78 ng/mL
[1]; patients with cardiac failure
  mean clearance: about 10 ml/min/kg
[1]; single oral dose of 3 mg/kg
  Bioavailability: about 55%

## CC(C)NCC(O)c1ccc(O)c(O)c1 (stereo not shown) [Isoproterenol]
[2]
  peak contractile force (net, T=0 baseline subtracted): > 1000 mg of tension

## CCCc1nn(C)c2c(=O)[nH]c(-c3cc(S(=O)(=O)N4CCN(C)CC4)ccc3OCC)nc12 [sildenafil, 5-[2-ethoxy-5-(4-methylpiperazin-1-ylsulphonyl)phenyl]-1-methyl-3-n-propyl-6,7-dihydro-1H-pyrazolo[4,3-d]pyrimidin-7-one]
[3]
  men with improved sexual function: about 70%
[4]
  inhibition of PDE-III: negligible inhibition

## Cc1[nH]c(=O)[nH]c1C(=O)c1ccc([S@@+](C)[O-])cc1 [(R)-(+)-enantiomer of enoximone sulfoxide, 1,3-Dihydro-4-methyl-5-[(4-methylsulfinyl)-benzoyl]-2H-imidazol-2-one hydrate]
[2]
  peak contractile force (net, T=0 baseline subtracted): 550 mg of tension
[5]
  IC50: 107 µM

## Cc1[nH]c(=O)[nH]c1C(=O)c1ccc([S+](C)[O-])cc1.O (stereo not shown) [Sulfoxide Metabolite 27996, 1,3-Dihydro-4-methyl-5-[(4-methylsulfinyl)-benzoyl]-2H-imidazol-2-one hydrate]
[2]
  peak contractile force (net, T=0 baseline subtracted): 175 mg of tension
